{"source": "ChEMBL document CHEMBL6182864", "about": "“Design, synthesis and biological evaluation of 3-amino-6-(2-hydroxyphenyl)pyridazin-4-aryl derivatives as SMARCA2/4 degraders” (Eur J Med Chem, 2025)", "key": {"MV4-11 [1]": {"test_system": "MV4-11", "experiment": "Down regulation of MYC mRNA expression in human MV4-11 cells measured after 24 hrs by RT-qPCR analysis", "type": "functional, cell-based", "settings": "dose 11.1-1000 nM"}, "MCF7": {"test_system": "MCF7", "experiment": "cells", "settings": "Homo sapiens, MCF7, 72 h"}, "MV4-11 [2]": {"test_system": "MV4-11", "experiment": "Induction of apoptosis in human MV4-11 cells assessed as early apoptotic cells at 100 nM measured after 72 hrs by Annexin-V-FITC/propidium iodide staining based flow cytometry (reference value: 9.32%)", "type": "functional"}, "MV4-11 [3]": {"test_system": "MV4-11", "experiment": "Induction of apoptosis in human MV4-11 cells assessed as viable cells at 100 nM measured after 72 hrs by Annexin-V-FITC/propidium iodide staining based flow cytometry (reference value: 89.49%)", "type": "functional", "settings": "read-out: Activity"}, "[4]": {"experiment": "Cmax in SPF Sprague-Dawley rat at 1 mg/kg, iv by LC-MS/MS analysis", "type": "ADME, organism-based", "settings": "in vivo"}, "MV4-11 [5]": {"test_system": "MV4-11", "experiment": "Down regulation of MYC protein expression in human MV4-11 cells at 11.1 to 1000 nM measured after 24 hrs by Western blot analysis", "type": "functional, cell-based", "settings": "dose 11.1-1000 nM"}, "HCT-116": {"test_system": "HCT-116", "experiment": "cells", "settings": "Homo sapiens, HCT-116, 72 h"}, "MDA-MB-231": {"test_system": "MDA-MB-231", "experiment": "cells", "settings": "Homo sapiens, MDA-MB-231, 72 h"}, "MV4-11 [6]": {"test_system": "MV4-11", "experiment": "Down regulation of […] mRNA expression in human MV4-11 cells at 100 to 1000 nM measured after 24 hrs by RT-qPCR analysis", "type": "functional, cell-based", "settings": "dose 100-1000 nM"}, "MV4-11 [7]": {"test_system": "MV4-11", "experiment": "Induction of apoptosis in human MV4-11 cells assessed as upregulation of PARP expression measured after 72 hrs by Western blot analysis", "type": "functional, cell-based", "settings": "dose 100-1000 nM"}, "WSUDLCL2": {"test_system": "WSUDLCL2", "experiment": "cells", "settings": "Homo sapiens, WSUDLCL2, 72 h"}, "MV4-11 [8]": {"test_system": "MV4-11", "experiment": "Induction of apoptosis in human MV4-11 cells assessed as viable cells at 1000 nM measured after 72 hrs by Annexin-V-FITC/propidium iodide staining based flow cytometry (reference value: 89.49%)", "type": "functional", "settings": "read-out: Activity"}, "MV4-11 [9]": {"test_system": "MV4-11", "experiment": "Down regulation of CDC25A mRNA expression in human MV4-11 cells at 11.1 to 33.3 nM measured after 24 hrs by RT-qPCR analysis", "type": "functional, cell-based", "settings": "dose 11.1-33.3 nM"}, "SNU-449": {"test_system": "SNU-449", "experiment": "cells", "settings": "Homo sapiens, SNU-449, 72 h"}, "MOLM-13 [10]": {"test_system": "MOLM-13", "experiment": "Cell cycle arrest in human MOLM-13 cells assessed as increase in accumulation of cells at G0/G1 phase measured after 48 hrs by propidium iodide staining based flow cytometry", "type": "functional", "settings": "dose 100-1000 nM"}, "[11]": {"experiment": "MRT (0 to t) in SPF Sprague-Dawley rat at 1 mg/kg, iv by LC-MS/MS analysis", "type": "ADME, organism-based", "settings": "in vivo"}, "MV4-11 [12]": {"test_system": "MV4-11", "experiment": "Induction of apoptosis in human MV4-11 cells assessed as early apoptotic cells at 1000 nM measured after 72 hrs by Annexin-V-FITC/propidium iodide staining based flow cytometry (reference value: 9.32%)", "type": "functional"}, "MV4-11 [13]": {"test_system": "MV4-11", "experiment": "cells", "settings": "Homo sapiens, MV4-11, 72 h"}, "MV4-11 [14]": {"test_system": "MV4-11", "experiment": "Induction of apoptosis in human MV4-11 cells assessed as early apoptotic cells at 300 nM measured after 72 hrs by Annexin-V-FITC/propidium iodide staining based flow cytometry (reference value: 9.32%)", "type": "functional"}, "A2780": {"test_system": "A2780", "experiment": "cells", "settings": "Homo sapiens, A2780, 72 h"}, "MOLM-13 [15]": {"test_system": "MOLM-13", "experiment": "cells", "settings": "Homo sapiens, MOLM-13, 72 h"}, "MV4-11 [16]": {"test_system": "MV4-11", "experiment": "Induction of apoptosis in human MV4-11 cells assessed as late apoptotic cells at 100 nM measured after 72 hrs by Annexin-V-FITC/propidium iodide staining based flow cytometry (reference value: 1.09%)", "type": "functional"}, "MOLM-13 [17]": {"test_system": "MOLM-13", "experiment": "Induction of apoptosis in human MOLM-13 cells assessed as early apoptotic cells at 1000 nM measured after 72 hrs by Annexin-V-FITC/propidium iodide staining based flow cytometry (reference value: 5.57%)", "type": "functional"}, "[18]": {"experiment": "Cmax in SPF Sprague-Dawley rat at 10 mg/kg, po by LC-MS/MS analysis", "type": "ADME, organism-based", "settings": "in vivo"}, "MOLM-13 [19]": {"test_system": "MOLM-13", "experiment": "Induction of apoptosis in human MOLM-13 cells assessed as necrotic cells at 1000 nM measured after 72 hrs by Annexin-V-FITC/propidium iodide staining based flow cytometry (reference value: 0.28%)", "type": "functional"}, "MV4-11 [20]": {"test_system": "MV4-11", "experiment": "Induction of apoptosis in human MV4-11 cells assessed as necrotic cells at 300 nM measured after 72 hrs by Annexin-V-FITC/propidium iodide staining based flow cytometry (reference value: 0.1%)", "type": "functional"}, "[21]": {"experiment": "Oral bioavailability in SPF Sprague-Dawley rat at 10 mg/kg by LC-MS/MS analysis", "type": "ADME, organism-based", "settings": "in vivo"}, "MV4-11 [22]": {"test_system": "MV4-11", "experiment": "Down regulation of CDC25A mRNA expression in human MV4-11 cells at 100 to 1000 nM measured after 24 hrs by RT-qPCR analysis", "type": "functional, cell-based", "settings": "dose 100-1000 nM"}, "MV4-11 [23]": {"test_system": "MV4-11", "experiment": "Down regulation of PU.1 mRNA expression in human MV4-11 cells at 11.1 to 1000 nM measured after 24 hrs by RT-qPCR analysis", "type": "functional, cell-based", "settings": "dose 11.1-1000 nM"}, "MV4-11 [24]": {"test_system": "MV4-11", "experiment": "Induction of apoptosis in human MV4-11 cells assessed as necrotic cells at 100 nM measured after 72 hrs by Annexin-V-FITC/propidium iodide staining based flow cytometry (reference value: 0.1%)", "type": "functional"}, "[25]": {"experiment": "Down regulation of SMARCA4 level in human MV4-11 cells at 100 nM measured after 6 hrs by mass spectrometric proteomic analysis relative to control", "type": "functional"}, "[26]": {"experiment": "Tmax in SPF Sprague-Dawley rat at 10 mg/kg, po by LC-MS/MS analysis", "type": "ADME, organism-based", "settings": "in vivo"}, "[27]": {"experiment": "MRT (0 to t) in SPF Sprague-Dawley rat at 10 mg/kg, po by LC-MS/MS analysis", "type": "ADME, organism-based", "settings": "in vivo"}, "MOLM-13 [28]": {"test_system": "MOLM-13", "experiment": "Induction of apoptosis in human MOLM-13 cells assessed as late apoptotic cells at 100 nM measured after 72 hrs by Annexin-V-FITC/propidium iodide staining based flow cytometry (reference value: 3.87%)", "type": "functional"}, "MV4-11 [29]": {"test_system": "MV4-11", "experiment": "Antiproliferative activity against human MV4-11 cells assessed as reduction in cell viability at 100 nM by MTT assay", "type": "functional, cell-based", "settings": "time 3-7 day"}, "MV4-11 [30]": {"test_system": "MV4-11", "experiment": "Induction of apoptosis in human MV4-11 cells assessed as late apoptotic cells at 1000 nM measured after 72 hrs by Annexin-V-FITC/propidium iodide staining based flow cytometry (reference value: 1.09%)", "type": "functional"}, "MV4-11 [31]": {"test_system": "MV4-11", "experiment": "Down regulation of BCL-2 mRNA expression in human MV4-11 cells at 11.1 to 1000 nM measured after 24 hrs by RT-qPCR analysis", "type": "functional, cell-based", "settings": "dose 11.1-1000 nM"}, "MOLM-13 [32]": {"test_system": "MOLM-13", "experiment": "Induction of apoptosis in human MOLM-13 cells assessed as early apoptotic cells at 100 nM measured after 72 hrs by Annexin-V-FITC/propidium iodide staining based flow cytometry (reference value: 5.57%)", "type": "functional"}, "MV4-11 [33]": {"test_system": "MV4-11", "experiment": "Effect on SMARCA4 mRNA expression in human MV4-11 cells at 1000 nM measured after 24 hrs by RT-qPCR analysis", "type": "functional, cell-based"}}, "note": "Active and inactive are the calls of the source. The calls are words filed in the database; no cut-off is given here.", "data": [{"smiles": "Cc1ncsc1-c1ccc([C@H](C)NC(=O)[C@@H]2C[C@@H](O)CN2C(=O)[C@@H](NC(=O)C2(c3ccc(-c4cc(-c5ccccc5O)nnc4N)cc3)CC2)C(C)(C)C)cc1", "values": [{"measurement": "Activity", "setting": "MV4-11 [1]", "value": "Dose-dependent-effect"}, {"measurement": "IC50", "setting": "MCF7", "value": "> 30000", "unit": "nM"}, {"measurement": "Activity", "setting": "MV4-11 [2]", "value": 47.5, "unit": "%"}, {"measurement": "viability at 0.1 µM", "setting": "MV4-11 [3]", "value": 32.3, "unit": "%"}, {"measurement": "Cmax", "setting": "[4]", "value": 1950, "unit": "ng/mL"}, {"measurement": "Activity", "setting": "MV4-11 [5]", "value": "Active"}, {"measurement": "IC50", "setting": "HCT-116", "value": "> 30000", "unit": "nM"}, {"measurement": "IC50", "setting": "MDA-MB-231", "value": 24300, "unit": "nM"}, {"measurement": "Activity", "setting": "MV4-11 [6]", "value": "Active"}, {"measurement": "Activity", "setting": "MV4-11 [7]", "value": "Dose-dependent-effect"}, {"measurement": "IC50", "setting": "WSUDLCL2", "value": 337, "unit": "nM"}, {"measurement": "viability at 1 µM", "setting": "MV4-11 [8]", "value": 22.1, "unit": "%"}, {"measurement": "Activity", "setting": "MV4-11 [9]", "value": "inactive"}, {"measurement": "IC50", "setting": "SNU-449", "value": 21500, "unit": "nM"}, {"measurement": "Activity", "setting": "MOLM-13 [10]", "value": "Dose-dependent-effect"}, {"measurement": "MRT last", "setting": "[11]", "value": 42, "unit": "min"}, {"measurement": "Activity", "setting": "MV4-11 [12]", "value": 51.91, "unit": "%"}, {"measurement": "IC50", "setting": "MV4-11 [13]", "value": 5, "unit": "nM"}, {"measurement": "Activity", "setting": "MV4-11 [14]", "value": 54.11, "unit": "%"}, {"measurement": "IC50", "setting": "A2780", "value": 1790, "unit": "nM"}, {"measurement": "IC50", "setting": "MOLM-13 [15]", "value": 23, "unit": "nM"}, {"measurement": "Activity", "setting": "MV4-11 [16]", "value": 18.96, "unit": "%"}, {"measurement": "Activity", "setting": "MOLM-13 [17]", "value": 57.3, "unit": "%"}, {"measurement": "Cmax", "setting": "[18]", "value": 6.41, "unit": "ng/mL"}, {"measurement": "Activity", "setting": "MOLM-13 [19]", "value": 0.24, "unit": "%"}, {"measurement": "Activity", "setting": "MV4-11 [20]", "value": 1.1, "unit": "%"}, {"measurement": "F", "setting": "[21]", "value": 0.62, "unit": "%"}, {"measurement": "Activity", "setting": "MV4-11 [22]", "value": "Active"}, {"measurement": "Activity", "setting": "MV4-11 [23]", "value": "Active"}, {"measurement": "Activity", "setting": "MV4-11 [24]", "value": 1.26, "unit": "%"}, {"measurement": "Activity", "setting": "[25]", "value": ">=50%"}, {"measurement": "Tmax", "setting": "[26]", "value": 25.2, "unit": "min"}, {"measurement": "MRT last", "setting": "[27]", "value": 48.6, "unit": "min"}, {"measurement": "Activity", "setting": "MOLM-13 [28]", "value": 6.91, "unit": "%"}, {"measurement": "Activity", "setting": "MV4-11 [29]", "value": "Time-dependent-effect; Complete Reduction Was Achieved On Day 7"}, {"measurement": "Activity", "setting": "MV4-11 [30]", "value": 24.35, "unit": "%"}, {"measurement": "Activity", "setting": "MV4-11 [31]", "value": "Active"}, {"measurement": "Activity", "setting": "MOLM-13 [32]", "value": 38.84, "unit": "%"}, {"measurement": "Activity", "setting": "MV4-11 [33]", "value": "Active; Little Effect Mrna Level Observed"}]}]}
